# Experimental data: patent US7608246B2 (The Brigham and Women's Hospital, Inc., priority 2005, dated 2009)
# Tests used:
# [1] = test system: CD1c; assay: CD1c presented antigen T cell stimulation with or without apoE; assay type: cell-based; details: versus without apoE
# [2] = test system: CD1b-restricted T cell line LDN5; assay: CD1b restricted T cell response to mycobacterial lipid antigens with or without apoE; assay type: cell-based; details: versus without apoE
# Source text: D) Enhancement of a CD1b dependent T cell response against foreign antigens.
# [3] = test system: αGC reactive T cells; assay: ApoE enhancement of GGC reactivity: DC pulsed, co-cultured with αGC reactive T cells, IFNγ ELISA; assay type: cell-based, human; details: for increase of antigenic potency of GGC: compared to freshly sonicated free GGC or GGC with HDL, LDL or albumin
# Method: Sonicated GGC was incubated with the indicated components in serum-free media with 4 mg/ml bovine serum albumin (BSA) as a carrier for 1-2 hours (or freshly sonicated) before pulsing DC and co-culturing with αGC reactive T cells in media supplemented with 2% human serum. IFNγ was measured in 16-24 hours by ELISA.
# C) Dose-dependence of apoE.
# [4] = test system: CD1d-reactive T cells; assay: T cell reactivity to GGC in apoE-depleted human serum; assay type: cell-based; details: compared to normal human serum
# Source text: Data are means of triplicate samples +/−SEM and are representative of four independent experiments using two separate apoE depletion columns and varying doses of antigen. Statistics reflect all doses in all experiments: *p<0.001, **p<0.001, ***p<0.01.
# [5] = test system: TT-reactive clone; assay type: cell-based
# [6] = test system: αGC-reactive NKT cells; assay: Response to intravenous GGC in apoE-deficient mice (intracellular IFNγ of CD1d tetramer positive cells); assay type: in vivo; details: 200 ng GGC or 1.5 μg anti-CD3
# Source text: Spleens and livers were harvested and TcRβ-positive, CD19-negative, CD1d tetramer positive cells analyzed for intracellular IFNγ production by flow cytometry.
# This was not due to a nonspecific deficit of T cell reactivity, since intravenous administration of anti-CD3 antibodies activated αGC reactive T cells similarly in both apoE-deficient mice and controls. Thus, apoE plays a crucial role in the in vivo presentation of an exogenous lipid antigen.
# [7] = target: apoE (Homo sapiens, UniProt P02649); assay: ApoE-GGC binding, heparin affinity column
# Method: A) ApoE-GGC binding. […] Fractions were assayed for antigenic activity as in FIG. 1. There was no difference in non-specific loss to the column. Data are representative of at least six separate experiments.
# [8] = test system: DC; assay: Rapidity of lipid antigen uptake: DC pulsed for varying times, then T cell stimulation; assay type: cell-based, human; details: free lipid in media alone
# Method: A) ApoE enhances the efficiency of presentation of GGC. […] GGC (solid squares and striped bars) or sonicated free GGC (open triangles and open bars) was incubated with DC in serum-free media with 4 mg/ml BSA for the indicated times before washing and testing the ability to stimulate T cells as described in FIGS. 1 and 2. Upper panel: Dose response curve of GGC for 2 minute pulse. Lower panel: Various pulse times are shown for 50 ng/ml GGC.
# To determine the rapidity and efficiency of lipid uptake into DC, free lipid antigen or apoE-bound lipid antigen was used to pulse DC for varying times before washing the cells and assaying their subsequent ability to present antigen to T cells.
# [9] = test system: αGC-reactive NKT cells; assay: Response to intravenous GGC in LDL-R deficient mice; assay type: in vivo; details: 200 ng GGC or 1.5 μg anti-CD3
# Method: D) LDLR−/− and matched wild type controls were challenged intravenously with 200 ng GGC, 1.5 μg anti-CD3 or vehicle as described in FIG. 1D. Shown are results from spleen, with similar results in the liver. Represents two separate experiments with 10 LDLR−/− and 10 wild type mice.
# Finally, the response to GGC in LDL-R deficient mice was examined. […] Thus, it was concluded that the LDL-R plays a major role in the uptake of apoE-lipid antigen complexes and presentation by CD1.
# [10] = test system: LDL-R; assay: ApoB competition at the LDL-R: DC pulsed with free GGC or apoE-GGC, activation of αGC reactive T cells; assay type: cell-based, human; details: increasing amounts of apoB
# Method: C) Free GGC or apoE-GGC was pulsed onto DC in the presence of increasing concentrations of apoB, and the subsequent activation of αGC reactive T cells was measured. There was no effect of apoB on PHA-stimulation of T cells. All data are representative of at least three experiments.
# In a second approach, advantage was taken of the fact that apoB, the primary component of LDL, also binds to the LDL-R and can serve as a competitive ligand, while not binding LRP (Beisiegel et al., Nature 341:162-4 (1989)). […] As controls, increasing amounts of apoB had no effect on the dose response to free GGC (FIG. 3C) or on the PHA induced T cell response.
# Sequence of apoE (P02649 19-317): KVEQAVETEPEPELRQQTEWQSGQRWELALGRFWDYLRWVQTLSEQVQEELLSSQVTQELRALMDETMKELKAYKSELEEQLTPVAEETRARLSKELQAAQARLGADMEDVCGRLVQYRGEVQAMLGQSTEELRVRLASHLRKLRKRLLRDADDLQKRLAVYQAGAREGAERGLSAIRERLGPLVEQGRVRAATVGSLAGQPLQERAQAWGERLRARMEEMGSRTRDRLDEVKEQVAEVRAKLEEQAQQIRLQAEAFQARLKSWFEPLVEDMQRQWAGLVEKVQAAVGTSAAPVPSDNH
substance,measurement,setting,value
manosyl-phosphomycoketide,T cell stimulation by CD1c presented antigen complexed with apoE,[1],significantly more efficient
Glucose monomycolate,CD1b restricted T cell activation when complexed with apoE,[2],more efficient
recombinant apoE: recombinant apoE,increase of antigenic potency of GGC,[3],~50 fold
apolipoprotein E [apoE],capacity of serum incubated with GGC to stimulate T cells,[4],recovered
same,"effect on control T cell stimulators (CD3, PHA or PMA/ionomycin)",[3]; increasing the concentration of apoE,no effect
same,effect on MHC class II restricted response to tetanus toxoid,[5],no effect
VLDL-derived apoE: apoE derived from VLDL,increase of antigenic potency of GGC,[3],~50 fold
galactosyl(α1-2)galactosyl ceramide [GGC],response in apoE-deficient mice versus wild type controls,[6],drastically reduced
same,binding of GGC to apoE,[7]; 10 minute incubation at room temperature,all detectable lipid antigen remained bound to apoE
same,GGC bound to apoE,[7]; in the presence of a 500-fold excess of albumin,greater than 95%
same,time required to achieve maximal stimulation,[8],4 to 6 h
same,maximal stimulation relative to that achieved in 2 minutes with apoE,[8]; 4-6 hours,48% (+/−11%)
same,response in LDL-R knockouts versus wild type controls,[9],greatly diminished response
apolipoprotein B [apoB],effect on antigen presentation by DC pulsed with apoE-GGC,[10],dose-dependent diminution
same,effect on dose response to free GGC or PHA induced T cell response,[10],no effect
mycolic acid,CD1b restricted T cell activation when complexed with apoE,[2],more efficient
